What all share (test): MIC by broth serial dilution
Holding throughout (format): cell-based

The test system of experiment [1] is Chondrococcus sp K-2. Conditions: TY medium pH 7.3, 25°C, 48 hours; read-out: MIC. The procedure: (§1) The MIC (minimum inhibitory concentration) of a test compound was determined by the serial dilution method on various pathogenic microorganisms incubated under the following experimental conditions. The lowest concentration at which the visible growth of the organism was inhibited was considered as MIC. […]
(§2) the broth-dilution method bouillon, pH 7.2, except for Vibrio (3% NaCl-bouillon, pH 7.2), Pasteurella (2% NaCl-Brain Heart Infusion, pH 7.3 and Chondrococcus (TY medium, pH 7.3) 1 drop of a bacterial suspension per test tube (100 - 1000 minimal growing units in the medium) 25°C, except for Pseud. anguilliseptica (20°C)
(§3) 48 hours, except for Pseudo. anguilliseptica ([…])

Experiment [2] has as its system Vibrio anguillarum A-8. The conditions noted are these: A8, 3% NaCl-bouillon pH 7.2, 25°C, 48 hours, read-out: MIC. The procedure:
as §1, §2, §3

The test system of experiment [3] is Aeromonas salmonicida Kawazu. The conditions noted are these: bouillon pH 7.2, 25°C, 48 hours, read-out: MIC. The method, then: as §1, §2, §3
For experiment [4], the system named is Pseudomonas anguilliseptica T-2. The conditions noted are these: T2, bouillon pH 7.2, 20°C, 7 hours, read-out: MIC. The method, then: as §1, §2, §3
Experiment [5] deals with Pasteurella piscicida Al-3. The conditions noted are these: Photobacterium damselae, AL3; 2% NaCl-Brain Heart Infusion pH 7.3, 25°C, 48 hours; read-out: MIC. The procedure:
as §1, §2, §3

Experiment [6] concerns Pasteurella piscicida K-1. Conditions: Photobacterium damselae, K1; 2% NaCl-Brain Heart Infusion pH 7.3, 25°C, 48 hours; read-out: MIC. The procedure:
as §1, §2, §3

In experiment [7] the test system is Aeromonas salmonicida Hara-1. The conditions noted are these: HARA1, bouillon pH 7.2, 25°C, 48 hours, read-out: MIC. The method, then:
as §1, §2, §3

For experiment [8], the system named is Pseudomonas anguilliseptica S-1. Conditions: S1, bouillon pH 7.2, 20°C, 7 hours, read-out: MIC. The procedure:
as §1, §2, §3

Experiment [9] relates to Chondrococcus sp K-1. Conditions: TY medium pH 7.3, 25°C, 48 hours; read-out: MIC. The procedure:
as §1, §2, §3

These results are taken from patent US3981999A, “Fish disease treatment” (Dainippon Pharmaceutical Co., Ltd., priority 1973, dated 1976).

Structures are written as SMILES. Converted amounts (≈) assume the structure as drawn.

In general, MIC refers to the lowest concentration found to suppress growth. As to `CCn1cc(C(=O)O)c(=O)c2cnc(N3CCCC3)nc21` [PA, 5,8-dihydro-2-pyrrolidino-8-ethyl-5-oxopyrido[2,3-d]pyrimidine-6-carboxylic acid], the MIC was found to be 0.3 µg/mL (≈ 1.04 µM) in experiment [1]; 3 µg/mL (≈ 10.4 µM) in experiment [2]; 0.1 µg/mL (≈ 0.347 µM) in [3]; 0.1 µg/mL (≈ 0.347 µM) in experiment [4]; 0.3 µg/mL (≈ 1.04 µM) in [5]; 1 µg/mL (≈ 3.47 µM) in experiment [6]. Further, the MIC in experiment [7] was found to be 0.1 µg/mL (≈ 0.347 µM); in [8], 0.1 µg/mL (≈ 0.347 µM); in [9], 0.3 µg/mL (≈ 1.04 µM).
